The text below walks through data of patent publication US9120749B2, “Quinoline derivatives and MELK inhibitors containing the same” (ONCOTHERAPY SCIENCE, INC., priority 2010, dated 2015).

SMILES strings stand for the structures. Structures can show the parent of a compound that is named as a salt. Where two headings read alike, the source gives them in different places.

One experiment deals with MELK (Homo sapiens, UniProt Q14680). The experiment in a line: Kinase assay: MELK activity, phosphorylation of FITC-labeled histone H3 peptide measured by IMAP fluorescence polarization. It is filed as biochemical. The conditions noted are these: read-out: IC50 (μM) (kinase assay). The method, boiled down:
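Kinase reactions ran with or without test compound (final DMSO 1%) on a fluorescein-tagged H3 peptide. Progressive binding solution was added to terminate them. After a half-hour room-temperature incubation, polarization was measured.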
A general note: Polarisation of emitted light reports the rotation of a fluorescent probe.

The next experiment relates to T47D cells. As to the kind of experiment: Cell-based assay: anti-proliferative activity, Cell Counting Kit-8, 72 hours (T47D). The procedure, abridged: (§1)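 First, lysates underwent western blotting with anti-MELK antibody to establish expression. Next, cells went into 96-well plates. Then candidate inhibitors were added. Finally, viability was determined by CCK-8 at 72 h and IC50 computed.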

A further experiment relates to A549 cells. As to the kind of experiment: Cell-based assay: anti-proliferative activity, Cell Counting Kit-8, 72 hours (A549). The note with it: 72 hours. The procedure, abridged: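 A549 cells seeded in 96-well plates and exposed to candidate inhibitors for 72 hours. Growth measured with Cell Counting Kit-8; IC50 values calculated from the dose response.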
(Tetrazolium dyes change colour on reduction, which living cells bring about.)

The next experiment has as its system HT-1197 cells. The experiment in a line: Cell-based assay: anti-proliferative activity, Cell Counting Kit-8, 72 hours (HT-1197, negative control without MELK expression). The note with it: HT1197 cells (negative control), 72 hours. The method, boiled down:
as §1

The test system of a further experiment is DU4475 cells. The experiment in a line: Cell-based assay: anti-proliferative activity, Cell Counting Kit-8, 72 hours (DU4475).

Chain of MELK (Q14680 whole entry, looked up): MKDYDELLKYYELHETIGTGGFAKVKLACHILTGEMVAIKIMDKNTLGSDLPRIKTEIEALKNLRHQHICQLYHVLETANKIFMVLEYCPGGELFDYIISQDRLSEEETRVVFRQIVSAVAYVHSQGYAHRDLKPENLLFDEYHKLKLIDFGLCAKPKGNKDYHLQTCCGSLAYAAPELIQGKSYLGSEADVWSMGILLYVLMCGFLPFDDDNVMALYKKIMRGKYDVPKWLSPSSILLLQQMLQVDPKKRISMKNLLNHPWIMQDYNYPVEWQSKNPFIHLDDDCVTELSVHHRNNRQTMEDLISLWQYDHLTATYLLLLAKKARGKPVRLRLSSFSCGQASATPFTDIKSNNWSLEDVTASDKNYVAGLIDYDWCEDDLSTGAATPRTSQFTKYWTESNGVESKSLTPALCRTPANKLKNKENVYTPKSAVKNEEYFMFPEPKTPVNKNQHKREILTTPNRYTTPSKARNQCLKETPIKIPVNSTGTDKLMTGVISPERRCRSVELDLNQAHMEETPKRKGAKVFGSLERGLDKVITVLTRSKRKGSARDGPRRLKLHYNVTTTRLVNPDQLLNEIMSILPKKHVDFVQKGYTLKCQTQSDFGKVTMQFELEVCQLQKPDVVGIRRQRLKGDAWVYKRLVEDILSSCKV

In general, IC50 refers to the concentration at which inhibition is half-maximal. For the compound `CCCC(=O)c1cnc2ccc(-c3cc(Cl)c(O)c(OC)c3)cc2c1Nc1ccc(CN(C)C)cc1` [Example 538, 1-(6-(3-chloro-4-hydroxy-5-methoxyphenyl)-4-(4-((dimethylamino)methyl)phenylamino)quinolin-3-yl)butan-1-one], the IC50 at MELK came out at 0.02 µM; in the experiment on T47D cells (Homo sapiens, T47D, 72 h) it was 0.28 µM; in the experiment with A549 cells (Homo sapiens, A549, 72 h) it was 0.45 µM; in the experiment with HT-1197 cells (Homo sapiens, HT1197, 72 h) it was 3.1 µM; with DU4475 cells (Homo sapiens, DU-4475, 72 h), 0.27 µM.
The corresponding values for `O=C(c1cnc2ccc(-c3cc(Cl)c(O)c(Cl)c3)cc2c1Nc1ccc(NC2CCCNC2)nc1)C1CC1` (centres unmarked) [Example 610, cyclopropyl(6-(3,5-dichloro-4-hydroxyphenyl)-4-(6-(piperidin-3-ylamino)pyridine-3-ylamino)quinolin-3-yl)methanone] are 0.0017 µM, 0.22 µM, 0.39 µM, 10 µM and 0.073 µM.
As for `CN(C)Cc1cccc(Nc2c(C(=O)C3CC3)cnc3ccc(-c4cc(F)c(O)c(Cl)c4)cc23)c1` [Example 629, (6-(3-chloro-5-fluoro-4-hydroxyphenyl)-4-(3-((dimethylamino)methyl)phenylamino)quinolin-3-yl)(cyclopropyl)methanone], the IC50 at MELK was 0.0051 µM; in the experiment on T47D cells (Homo sapiens, T47D, 72 h) it was 0.58 µM; in the experiment on A549 cells (Homo sapiens, A549, 72 h), 0.12 µM; in the experiment with HT-1197 cells (Homo sapiens, HT1197, 72 h), 3.3 µM; with DU4475 cells (Homo sapiens, DU-4475, 72 h) it was 0.069 µM.
On the same counts, the results for `COc1cc(-c2ccc3ncc(C(=O)C4CC4)c(N4CCN(C)CC4)c3c2)cc(Cl)c1O` [Example 533, (6-(3-chloro-4-hydroxy-5-methoxyphenyl)-4-(4-methylpiperazin-1-yl)quinolin-3-yl)(cyclopropyl)methanone] are 0.0088 µM, 0.48 µM, 0.26 µM, 2.6 µM and 0.4 µM.
The corresponding values for `O=C(c1cnc2ccc(-c3cc(F)c(O)c(Cl)c3)cc2c1N[C@H]1C[C@H]2CC[C@@H](C1)N2)C1CC1` [Example 621, (4-((1R,3r,5S)-8-azabicyclo[3.2.1]octan-3-ylamino)-6-(3-chloro-5-fluoro-4-hydroxyphenyl)quinolin-3-yl)(cyclopropyl)methanone] are 0.01 µM, 0.24 µM, 0.91 µM, 3.9 µM and 0.11 µM.
The corresponding values for `Nc1ccc(Nc2c(C(=O)C3CC3)cnc3ccc(-c4cc(F)c(O)c(Cl)c4)cc23)cn1` [Example 591, (4-(6-aminopyridin-3-ylamino)-6-(3-chloro-5-fluoro-4-hydroxyphenyl)quinolin-3-yl)(cyclopropyl)methanone] are 0.032 µM, 0.26 µM, 0.36 µM, 1.4 µM and 0.12 µM.
Regarding `NC[C@H]1CC[C@@H](Nc2c(C(=O)C3CC3)cnc3ccc(-c4cc(F)c(O)c(Cl)c4)cc23)CC1` [Example 515, (4-((1s,4s)-4-(aminomethyl)cyclohexylamino)-6-(3-chloro-5-fluoro-4-hydroxyphenyl)quinolin-3-yl)(cyclopropyl)methanone], the IC50 on MELK was determined as 0.0034 µM; in the experiment with T47D cells (Homo sapiens, T47D, 72 h), 0.23 µM; in the experiment with A549 cells (Homo sapiens, A549, 72 h), 0.83 µM; in the experiment on HT-1197 cells (Homo sapiens, HT1197, 72 h), 3.9 µM; in the experiment with DU4475 cells (Homo sapiens, DU-4475, 72 h), 0.12 µM.
`O=C(c1cnc2cc(F)c(-c3cc(Cl)c(O)c(Cl)c3)cc2c1Nc1ccc(N2CCNCC2)nc1)C1CC1` [Example 559, cyclopropyl(6-(3,5-dichloro-4-hydroxyphenyl)-7-fluoro-4-(6-(piperazin-1-yl)pyridin-3-ylamino)quinolin-3-yl)methanone]: the IC50 at MELK amounted to 0.01 µM; with T47D cells (Homo sapiens, T47D, 72 h), 0.46 µM; in the experiment with A549 cells (Homo sapiens, A549, 72 h), 0.59 µM; with HT-1197 cells (Homo sapiens, HT1197, 72 h), 3.2 µM; with DU4475 cells (Homo sapiens, DU-4475, 72 h) it was 0.35 µM.
In the case of `COc1cc(-c2ccc3ncc(C(=O)C4CC4)c(C4=CCN(C(=O)CN(C)C)CC4)c3c2)cc(Cl)c1O` [Example 521, 1-(4-(6-(3-chloro-4-hydroxy-5-methoxyphenyl)-3-(cyclopropanecarbonyl)quinolin-4-yl)-5,6-dihydropyridin-1(2H)-yl)-2-(dimethylamino)ethanone], the IC50 worked out at 0.0024 µM on MELK; 0.22 µM in the experiment with T47D cells (Homo sapiens, T47D, 72 h); 0.18 µM in the experiment with A549 cells (Homo sapiens, A549, 72 h); 1.5 µM in the experiment on HT-1197 cells (Homo sapiens, HT1197, 72 h); 0.27 µM in the experiment on DU4475 cells (Homo sapiens, DU-4475, 72 h).
Take `CC(C)(N)c1ccc(Nc2c(C(=O)C3CC3)cnc3ccc(-c4cc(Cl)c(O)c(Cl)c4)cc23)cc1` [Example 601, {4-[4-(2-Aminopropan-2-yl)phenylamino]-6-(3,5-dichloro-4-hydroxyphenyl)quinolin-3-yl}(cyclopropyl)methanone hydrochloride]: the IC50 came to 0.0014 µM on MELK (hydrochloride); 0.09 µM with T47D cells (Homo sapiens, T47D, 72 h); 0.047 µM in the experiment with A549 cells (Homo sapiens, A549, 72 h); 0.42 µM in the experiment with HT-1197 cells (Homo sapiens, HT1197, 72 h); 0.023 µM in the experiment on DU4475 cells (Homo sapiens, DU-4475, 72 h).
Regarding `NC1CCCN(c2ccc(Nc3c(C(=O)C4CC4)cnc4ccc(-c5cc(Cl)c(O)c(Cl)c5)cc34)cn2)C1` (centres unmarked) [Example 556, (4-(6-(3-aminopiperidin-1-yl)pyridin-3-ylamino)-6-(3,5-dichloro-4-hydroxyphenyl)quinolin-3-yl)(cyclopropyl)methanone], the IC50 worked out at 0.0044 µM at MELK; 0.03 µM in the experiment on T47D cells (Homo sapiens, T47D, 72 h); 0.023 µM in the experiment with A549 cells (Homo sapiens, A549, 72 h); 0.96 µM in the experiment on HT-1197 cells (Homo sapiens, HT1197, 72 h); 0.016 µM in the experiment with DU4475 cells (Homo sapiens, DU-4475, 72 h).
On the same counts, the results for `NC1CCN(c2ccc(Nc3c(C(=O)C4CC4)cnc4ccc(-c5cc(Cl)c(O)c(Cl)c5)cc34)cn2)CC1` [Example 548, (4-(6-(4-aminopiperidin-1-yl)pyridin-3-ylamino)-6-(3,5-dichloro-4-hydroxyphenyl)quinolin-3-yl)(cyclopropyl)methanone] are 0.002 µM, 0.097 µM, 0.45 µM, 3.4 µM and 0.099 µM.
On to `CN[C@H]1CC[C@H](Nc2c(C(=O)C3CC3)cnc3ccc(-c4cc(F)c(O)c(Cl)c4)cc23)CC1` [Example 523, {6-(3-Chloro-5-fluoro-4-hydroxyphenyl)-4-[trans-4-(methylamino)cyclohexylamino]quinolin-3-yl}(cyclopropyl)methanone], for which the IC50 on MELK came out at 0.0024 µM; in the experiment on T47D cells (Homo sapiens, T47D, 72 h) it was 0.033 µM; in the experiment with A549 cells (Homo sapiens, A549, 72 h), 0.19 µM; in the experiment with HT-1197 cells (Homo sapiens, HT1197, 72 h) it was 1.3 µM; in the experiment on DU4475 cells (Homo sapiens, DU-4475, 72 h), 0.024 µM.
The corresponding values for `CC(C)C(=O)c1cnc2ccc(-c3cc(F)c(O)c(Cl)c3)cc2c1N[C@H]1CC[C@H](CN(C)C)CC1` [Example 620] are 0.0066 µM, 0.16 µM, 0.18 µM, 0.17 µM and 0.095 µM.
As to `COC1CCN(C[C@H]2CC[C@H](Nc3c(C(=O)C4CC4)cnc4ccc(-c5cc(Cl)c(O)c(Cl)c5)cc34)CC2)C1` (stereo partly drawn) [Example 598, cyclopropyl(6-(3,5-dichloro-4-hydroxyphenyl)-4-((trans-4-((3-methoxypyrrolidin-1-yl)methyl)cyclohexyl)amino)quinolin-3-yl)methanone], the IC50 on MELK was determined as 0.0023 µM; with T47D cells (Homo sapiens, T47D, 72 h), 0.18 µM; in the experiment with A549 cells (Homo sapiens, A549, 72 h), 0.13 µM; in the experiment with HT-1197 cells (Homo sapiens, HT1197, 72 h), 1 µM; in the experiment on DU4475 cells (Homo sapiens, DU-4475, 72 h), 0.066 µM.
With `NC1CCN(c2ccc(Nc3c(C(=O)C4CC4)cnc4ccc(-c5cc(F)c(O)c(Cl)c5)cc34)cn2)C1` (centres unmarked) [Example 577, (4-(6-(3-aminopyrrolidin-1-yl)pyridin-3-ylamino)-6-(3-chloro-5-fluoro-4-hydroxyphenyl)quinolin-3-yl)(cyclopropyl)methanone hydrochloride], the IC50 at MELK (hydrochloride) turned out to be 0.0037 µM; with T47D cells (72 hours, hydrochloride) it was 0.0065 µM; with A549 cells (hydrochloride) it was 0.029 µM; in the experiment on HT-1197 cells (hydrochloride), 0.52 µM; in the experiment with DU4475 cells (hydrochloride) it was 0.014 µM.
Turning to `COc1cc(-c2ccc3ncc(C(=O)C4CC4)c(Nc4ccc(N5CCNCC5)cn4)c3c2)cc(Cl)c1O` [Example 528, (6-(3-chloro-4-hydroxy-5-methoxyphenyl)-4-(5-(piperazin-1-yl)pyridin-2-ylamino)quinolin-3-yl)(cyclopropyl)methanone hydrochloride], the IC50 on MELK turned out to be 0.0044 µM; with T47D cells (Homo sapiens, T47D, 72 h) it was 1.8 µM; with A549 cells (Homo sapiens, A549, 72 h), 1.3 µM; in the experiment on HT-1197 cells (Homo sapiens, HT1197, 72 h), 4.2 µM; with DU4475 cells (Homo sapiens, DU-4475, 72 h), 1.7 µM.
For the compound `NC1CCN(c2ncc(Nc3c(C(=O)C4CC4)cnc4ccc(-c5cc(F)c(O)c(Cl)c5)cc34)cn2)C1` (centres unmarked) [Example 573, (4-(2-(3-aminopyrrolidin-1-yl)pyrimidin-5-ylamino)-6-(3-chloro-5-fluoro-4-hydroxyphenyl)quinolin-3-yl)(cyclopropyl)methanone hydrochloride], the IC50 at MELK (hydrochloride) amounted to 0.004 µM; with T47D cells (72 hours, hydrochloride), 0.0072 µM; in the experiment with A549 cells (hydrochloride), 0.032 µM; in the experiment with HT-1197 cells (hydrochloride), 0.57 µM; in the experiment on DU4475 cells (hydrochloride), 0.013 µM.
As to `CC(C)C(=O)c1cnc2ccc(-c3cc(Cl)c(O)c(Cl)c3)cc2c1N[C@H]1CC[C@H](CN(C)C)CC1` [Example 608, 1-(6-(3,5-dichloro-4-hydroxyphenyl)-4-((1R,4R)-4-((dimethylamino)methyl)cyclohexylamino)quinolin-3-yl)-2-methylpropan-1-one], the IC50 was found to be 0.0022 µM on MELK; 0.15 µM in the experiment with T47D cells (Homo sapiens, T47D, 72 h); 0.25 µM in the experiment on A549 cells (Homo sapiens, A549, 72 h); 0.46 µM in the experiment with HT-1197 cells (Homo sapiens, HT1197, 72 h); 0.072 µM in the experiment on DU4475 cells (Homo sapiens, DU-4475, 72 h).
